Results on 21 compounds are retold here after US8883782B2, “Spiro-tetracyclic ring compounds as beta-secretase modulators and methods of use” (Amgen Inc., priority 2010, dated 2014).

pIC50: −log10 of the molar value. Where two headings read alike, the source gives them in different places.

In experiment [1] the target is Beta Secretase enzyme (BACE) (Homo sapiens, UniProt P56817). Nature of the experiment: In vitro enzymatic BACE FRET (fluorescence resonance energy transfer) assay. It is filed as biochemical. The following applies: for IC50: BACE 1 FRET assay (uM); for pIC50: average IC50, enzyme assay, read-out: BACE 1 FRET assay. The procedure, abridged: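 Acetate buffer (0.05 M, pH 4.2), 10% DMSO final, 100 uM nonionic detergent genapol. Substrate addition (50 nM FRET peptide) initiates; one-hour incubation; Tris raises pH to neutrality before fluorescence measurement.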
Beta Secretase enzyme (BACE), sequence (P56817 46-501, species assumed): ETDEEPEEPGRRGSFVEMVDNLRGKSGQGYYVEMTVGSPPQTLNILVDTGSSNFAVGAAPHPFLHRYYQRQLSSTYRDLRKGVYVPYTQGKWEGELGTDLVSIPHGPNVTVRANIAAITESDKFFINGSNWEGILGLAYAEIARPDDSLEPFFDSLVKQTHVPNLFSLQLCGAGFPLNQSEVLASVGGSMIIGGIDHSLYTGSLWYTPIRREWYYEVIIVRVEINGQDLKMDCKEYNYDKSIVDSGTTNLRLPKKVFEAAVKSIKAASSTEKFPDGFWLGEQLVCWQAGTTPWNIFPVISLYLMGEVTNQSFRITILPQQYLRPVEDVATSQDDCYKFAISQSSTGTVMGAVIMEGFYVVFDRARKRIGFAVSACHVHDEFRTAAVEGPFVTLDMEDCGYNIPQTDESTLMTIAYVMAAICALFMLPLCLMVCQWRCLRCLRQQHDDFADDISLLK

Experiment [2] relates to Abeta 40 in cerebrospinal fluid (CSF) and brain. As to the kind of experiment: In vivo inhibition of beta-secretase (Abeta 40 reduction in CSF and brain). The following applies: rat, after 4 hrs; for inhibition in vivo at 10 mg/kg: Abeta 40, 10 mg/kg (10 mpk); for inhibition in vivo at 3 mg/kg: Abeta 40, 3 mpk. From the text: In Vivo Inhibition of Beta-Secretase
Several animal models, including mouse, rat, dog, and monkey, may be used to screen for inhibition of beta-secretase activity in vivo following administration of a test compound sample. Animals used in this invention can be wild type, transgenic, or gene knockout animals. […] A separate group of animals receive 2% hydroxypropyl methylcellulose, 1% Tween80 alone, containing no test compound, and serve as a vehicle-control group. At the end of the test period, animals are sacrificed and brain tissues, plasma or cerebrospinal fluid are collected. […] Homogenates are centrifuged at 355,000 g, 4° C. for 30 minutes. CSF or brain supernatants are then analyzed for the presence of A-beta peptide by specific sandwich ELISA assays based on ECL (Electrochemiluminescence) technology. For example, rat Abeta40 is measured using biotinylated-4G8 (Signet) as a capture antibody and Fab40 (an in-house antibody specific to the C-terminal of Abeta40) as a detection antibody.
Actual vehicles used: Oral: 2% HPMC, 1% Tween80, pH 2.2

For experiment [3], the system named is Aβ40 in conditioned medium of cells stably expressing Amyloid Precursor Protein (APP). As to the kind of experiment: In vitro BACE cell-based assay (Aβ40 in conditioned medium, sandwich ELISA). The following applies: for pIC50: read-out: HEK cell assay. The procedure, abridged:
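Conditioned medium from stably APP-expressing cells treated with compound dose series is assayed for Aβ40 by sandwich ELISA with time-resolved fluorescence detection. IC50 is calculated from percent inhibition of Aβ40 against compound concentration.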
On the technique in general: ELISA stands for enzyme-linked immunosorbent assay.

Where [4] appears, read: CSF, read-out: CSF A-beta reduction % at 10 mg/kg.
[5] abbreviates: brain, read-out: Brain A-beta reduction % at 10 mg/kg.
Setting [6] is: Homo sapiens, HEK293, average IC50, HEK cells.
The mark [7] stands for this setting: Homo sapiens, HEK293, average IC50.

For orientation: IC50 means the concentration that gives 50% inhibition.

Regarding `NC1=N[C@@]2(CO1)c1cc(-c3cccnc3F)c(F)cc1Oc1c(F)cc(C3=CCOCC3)cc12` (single isomer, unassigned) [Example 867], the concentration for half-maximal inhibition (IC50) was 0.0003 µM in experiment [1] and 0.005 µM in experiment [3] (Homo sapiens, HEK293, read-out: HEK cell assay (uM), average IC50, HEK cells). Besides, the inhibition in vivo at 10 mg/kg amounted to 56% in experiment [2] (setting [4]) and 39% in experiment [2] (setting [5]).

As for `NC1=N[C@@]2(CO1)c1cc(-c3cccnc3F)c(F)cc1Oc1c(F)cc(N3CCOCC3)cc12` (single isomer, unassigned) [Example 869], the pIC50 is 9.30 in experiment [1] and 8.00 in experiment [3] (setting [6]). Moreover, the inhibition in vivo at 10 mg/kg was determined as 61% in experiment [2] (setting [4]) and 44% in experiment [2] (setting [5]).

As to `NC1=N[C@@]2(CS1)c1cc(-c3cccnc3F)ccc1Oc1c2cc(-c2ccnc(F)c2)nc1F` (single isomer, unassigned) [Example 996], the pIC50 in experiment [1] is 9.70; in experiment [3] (setting [7]), 7.89. Further, the inhibition in vivo at 10 mg/kg is 55% in experiment [2] (setting [4]) and 43% in experiment [2] (setting [5]).

In the case of `NC1=N[C@@]2(CO1)c1cc(-c3c(F)ccnc3F)ccc1Oc1cnc(C3=CCOCC3)cc12` [Example 89, (5S)-7-(2,4-difluoro-3-pyridinyl)-3-(3,6-dihydro-2H-pyran-4-yl)spiro[chromeno[2,3-c]pyridine-5,4′-[1,3]oxazol]-2′-amine], the 50% inhibitory concentration (IC50) in experiment [1] was found to be 0.0007 µM; in experiment [3] (Homo sapiens, HEK293, read-out: HEK cell assay (uM), average IC50, HEK cell assay), 0.0047 µM. Moreover, the inhibition in vivo at 10 mg/kg in experiment [2] (setting [4]) turned out to be 80%; in experiment [2] (setting [5]), 69%.

Take `NC1=N[C@@]2(CS1)c1cc(-c3cccnc3F)ccc1Oc1ncc(C3=CCOCC3)cc12` [Example 97, (S)-3-(3,6-dihydro-2H-pyran-4-yl)-7-(2-fluoropyridin-3-yl)-5′H-spiro[chromeno[2,3-b]pyridine-5,4′-thiazol]-2′-amine]: the pIC50 is 9.30 in experiment [1] and 8.12 in experiment [3] (setting [6]). Besides, the inhibition in vivo at 10 mg/kg in experiment [2] (setting [4]) was found to be 46%; in experiment [2] (setting [5]), 28%.

Regarding `CC1(C#Cc2cnc3c(c2)[C@]2(COC(N)=N2)c2cc(-c4cccc(C#N)c4)ccc2O3)COC1` [Example 127, (S)-3-(2′-amino-3-((3-methyloxetan-3-yl)ethynyl)-5′H-spiro[chromeno[2,3-b]pyridine-5,4′-oxazole]-7-yl)benzonitrile], the pIC50 is 8.96 in experiment [1] and 8.30 in experiment [3] (setting [7]). Also, the values for the inhibition in vivo at 10 mg/kg in experiment [2] (setting [4]) and in experiment [2] (setting [5]) were 61% and 45%, respectively.

`NC1=N[C@@]2(CO1)c1cc(-c3cccnc3F)ccc1Oc1c(F)cc(-c3ncccn3)cc12` [Example 128, (S)-4′-fluoro-7′-(2-fluoropyridin-3-yl)-2′-(pyrimidin-2-yl)-5H-spiro[oxazole-4,9′-xanthen]-2-amine]: the pIC50 in experiment [1] is 8.96; in experiment [3] (setting [7]) it was 8.09. Besides, the inhibition in vivo at 10 mg/kg in experiment [2] (setting [4]) came to 75%; in experiment [2] (setting [5]), 57%.

Turning to `Cc1cnc(F)c(-c2ccc3c(c2)[C@@]2(COC(N)=N2)c2cc(N4CCOCC4)cc(F)c2O3)c1` [Example 132, (S)-4′-fluoro-7′-(2-fluoro-5-methylpyridin-3-yl)-2′-morpholino-5H-spiro[oxazole-4,9′-xanthen]-2-amine], the values for the pIC50 in experiment [1] and in experiment [3] (setting [7]) were 8.82 and 8.22, respectively. Also, the values for the inhibition in vivo at 10 mg/kg in experiment [2] (setting [4]) and in experiment [2] (setting [5]) were 54% and 45%, respectively.

As for `N#Cc1cccc(-c2ccc3c(c2)[C@@]2(COC(N)=N2)c2cc(N4CCC(F)(F)C4)ncc2O3)c1` [Example 134, (S)-3-(2′-amino-3-(3,3-difluoropyrolidin-1-yl)-5′H-spiro[chromeno[2,3-c]pyridine-5,4′-oxazole]-7-yl)benzonitrile], the pIC50 in experiment [1] is 9.00; in experiment [3] (setting [6]), 7.92. Also, the inhibition in vivo at 10 mg/kg in experiment [2] (setting [4]) came to 61%; in experiment [2] (setting [5]), 45%.

Consider `CC(C)(C)C#Cc1cnc2c(c1)[C@]1(COC(N)=N1)c1cc(-c3cncnc3)c(F)cc1O2` [Example 339, (S)-3-(3,3-dimethylbut-1-yn-1-yl)-8-fluoro-7-(pyrimidin-5-yl)-5′H-spiro[chromeno[2,3-b]pyridine-5,4′-oxazol]-2′-amine], for which the inhibition in vivo at 10 mg/kg stood at 56% in experiment [2] (setting [4]) and 29% in experiment [2] (setting [5]). For the same compound, in experiment [3] (average IC50), the pIC50 was 7.84.

`NC1=N[C@@]2(CO1)c1cc(-c3cccnc3F)ccc1Oc1c2cc(C2=CCCOC2)nc1F` [Example 688, (5S)-3-(5,6-dihydro-2H-pyran-3-yl)-1-fluoro-7-(2-fluoro-3-pyridinyl)spiro[chromeno[2,3-c]pyridine-5,4′-[1,3]oxazol]-2′-amine]: the inhibition in vivo at 3 mg/kg in experiment [2] (CSF, read-out: CSF A-beta reduction % at 3 mpk) amounted to 74%; in experiment [2] (brain, read-out: Brain A-beta reduction % at 3 mpk) it was 75%. In addition, in experiment [3] (setting [6]), the pIC50 is 8.30.

As for `NC1=N[C@@]2(CS1)c1cc(-c3cccnc3F)ccc1Oc1cnc(-c3ccnc(F)c3)cc12` [Example 1000, (S)-7-(2-fluoropyridin-3-yl)-3-(2-fluoropyridin-4-yl)-5′H-spiro[chromeno[2,3-c]pyridine-5,4′-thiazol]-2′-amine], the “CSF A-beta reduction % at 30 mpk” value in experiment [2] (CSF, Abeta 40, 30 mpk) worked out at 63% at 30 mpk. Besides, in experiment [2] (brain, Abeta 40, 30 mpk), the “Brain A-beta reduction % at 30 mpk” value is reported as 60% at 30 mpk. For the same compound, the pIC50 in experiment [3] (setting [7]) was 7.64.

On to “(4S)-2′-(2-chloro-4-pyrimidinyl)-4′-fluoro-7′-(2-fluoro-3-pyridinyl)spiro[1,3-oxazole-4,9′-xanthen]-2-amine [Example 221]”, for which the pIC50 in experiment [1] was 9.15; in experiment [3] (average IC50) it was 6.89.

Take “(4S)-2′-(((1R)-2,2-difluorocyclopropyl)methoxy)-4′-fluoro-7′-(2-fluoro-3-pyridinyl)spiro[1,3-thiazole-4,9′-xanthen]-2-amine, (4S)-2′-(((1S)-2,2-difluorocyclopropyl)methoxy)-4′-fluoro-7′-(2-fluoro-3-pyridinyl)spiro[1,3-thiazole-4,9′-xanthen]-2-amine [Example 1080]”: the pIC50 is 9.30 in experiment [1] and 7.33 in experiment [3] (average IC50).

On to “(4S)-4′-fluoro-7′-(2-fluoro-3-pyridinyl)-2′-((2R)-tetrahydro-2H-pyran-2-yl)spiro[1,3-oxazole-4,9′-xanthen]-2-amine [Example 220]”, for which the pIC50 in experiment [1] was 8.80; in experiment [3] (average IC50), 7.89.

With “(4S)-4′-fluoro-7′-(2-fluoro-3-pyridinyl)-2′-((2S)-tetrahydro-2H-pyran-2-yl)spiro[1,3-oxazole-4,9′-xanthen]-2-amine [Example 219]”, the pIC50 in experiment [1] is 9.05; in experiment [3] (average IC50) it was 8.21.

Turning to “(4S)-4′-fluoro-7′-(2-fluoro-3-pyridinyl)-2′-((3R)-3-methyl-1-pyrrolidinyl)spiro[1,3-oxazole-4,9′-xanthen]-2-amine, (4S)-4′-fluoro-7′-(2-fluoro-3-pyridinyl)-2′-((3S)-3-methyl-1-pyrrolidinyl)spiro[1,3-oxazole-4,9′-xanthen]-2-amine [Example 1055]”, the figures for the pIC50 in experiment [1] and in experiment [3] (average IC50) were 9.40 and 7.48, respectively.

Turning to “(5R)-3-bromo-7-iodospiro[chromeno[2,3-b]pyridine-5,4′-[1,3]oxazol]-2′-amine, (5S)-3-bromo-7-iodospiro[chromeno[2,3-b]pyridine-5,4′-[1,3]oxazol]-2′-amine [Example 762]”, the pIC50 is 8.40 in experiment [1] and 7.07 in experiment [3] (average IC50).

On to “(5R)-7-(2,4-difluoro-3-pyridinyl)-3-(2-fluoro-4-pyridinyl)spiro[chromeno[2,3-c]pyridine-5,4′-[1,3]thiazol]-2′-amine, (5S)-7-(2,4-difluoro-3-pyridinyl)-3-(2-fluoro-4-pyridinyl)spiro[chromeno[2,3-c]pyridine-5,4′-[1,3]thiazol]-2′-amine [Example 1019]”, for which the pIC50 is 9.15 in experiment [1] and 7.48 in experiment [3] (average IC50).

With “(5R)-7-bromo-3-fluoro-1-methoxyspiro[chromeno[2,3-c]pyridine-5,4′-[1,3]oxazol]-2′-amine, (5S)-7-bromo-3-fluoro-1-methoxyspiro[chromeno[2,3-c]pyridine-5,4′-[1,3]oxazol]-2′-amine [Example 846]”, the pIC50 in experiment [1] is 8.85; in experiment [3] (average IC50), 7.85.

“(6R)-4-((4S)-2-amino-4′-fluoro-7′-(2-fluoro-3-pyridinyl)spiro[1,3-oxazole-4,9′-xanthen]-2′-yl)-6-methyl-5,6-dihydro-2H-pyran-2-one, (6S)-4-((4S)-2-amino-4′-fluoro-7′-(2-fluoro-3-pyridinyl)spiro[1,3-oxazole-4,9′-xanthen]-2′-yl)-6-methyl-5,6-dihydro-2H-pyran-2-one [Example 803]”: the pIC50 in experiment [1] was 9.10; in experiment [3] (average IC50), 7.82.
